Experimental data reported in US20090197914A1, “Piperidine Derivatives, Their Process for Preparation, Their Use as Therapeutic Agents and Pharmaceutical Compositions Containing Them” (priority 2006, published 2009).

Key:
[1] = Intrinsic clearance with human liver microsomes; format: in vitro ADME; conditions: human liver microsomes 1 mg protein/ml, NADPH, pH 7.4
Protocol: Determination of Intrinsic Clearance with Human Liver Microsomes
Frozen human liver microsomes (BD Gentest, Oxford) were defrosted and were then diluted with 0.1 M pH 7.4 phosphate buffer at 4° C. to 1 mg protein/ml. 0.45 mL aliquots of the microsome suspension were dispensed into flat-bottomed vials (1 per compound) and were allowed to come to room temperature (5 min). During the warming time, 5 μL of solution of each test compound (typically 100 μM in DMSO) was dispensed into separate vials resulting in a final DMSO concentration of 1%. 50 μL of a 10 mM solution of NADPH in phosphate buffer (0.1 M pH 7.4, 37° C.) was added to each vial to initiate metabolism.
50 μL Aliquots of the mixtures were removed at measured intervals and were immediately quenched by addition to 100 μL of methanol cooled in ice. The quenched samples were kept cold (at −20° C. or less) for at least 1 h and were then centrifuged to remove protein.
The supernatant solution was analysed using quantitative LCMS for the presence of test compound. From the concentrations of test compound at different time points a T1/2 may be calculated which may be converted to an intrinsic clearance using the equation: CLint=ln 2/T1/2.

[2] = biological target: T1, human recombinant CCR3 receptors (Homo sapiens, UniProt P51677); test: Compound affinity at human recombinant CCR3 receptors by radioligand competition, CHO-K1 cell membranes; format: binding; conditions: mean pKi by Cheng-Prussof correction of pIC50, minimum of 2 separate experiments, 2 nM [3H] ligand, 2 h at 37° C.
T1 construct: expressed in transfected cells; membranes
T1 sequence (P51677 1-355): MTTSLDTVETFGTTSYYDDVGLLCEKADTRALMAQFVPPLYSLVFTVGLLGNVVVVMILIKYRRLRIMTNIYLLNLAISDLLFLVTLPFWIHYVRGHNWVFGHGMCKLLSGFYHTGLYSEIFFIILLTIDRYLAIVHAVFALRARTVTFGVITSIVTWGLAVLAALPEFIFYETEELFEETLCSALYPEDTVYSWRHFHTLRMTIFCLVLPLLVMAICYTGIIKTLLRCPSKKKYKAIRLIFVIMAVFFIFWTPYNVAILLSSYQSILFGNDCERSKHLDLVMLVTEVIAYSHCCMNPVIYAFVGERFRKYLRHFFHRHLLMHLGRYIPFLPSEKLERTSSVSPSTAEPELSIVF
Protocol: Determination of Compound Affinity at Human Recombinant CCR3 Receptors Assessed By Competition of [^3H]-4-(2,4-dichloro-3-methylphenoxy)-1′-[4-(methylsulfonyl)benzoyl]-1,4′-bipiperidine for CHO-K1 Cell Membranes In Vitro
Membranes, prepared from CHO-K1 cells stably expressing recombinant human CCR3, suspended in assay buffer (50 mM Tris-Base, pH 7.4; containing sodium chloride (100 mM) and magnesium chloride (2 mM)) were incubated in the presence of 2 nM [^3H]-4-(2,4-dichloro-3-methylphenoxy)-1′-[4-(methylsulfonyl)benzoyl]-1,4′-bipiperidine, along with vehicle (1% (v/v) DMSO), 4-(4-chloro-3-methylphenoxy)-1′-[2-(methylsulfonyl)benzoyl]-1,4′-bipiperidine (to define non-specific binding) or test compound for 2 h at 37° C. in round bottomed 96-well plates. […] Four washes (250 μL) with wash buffer (50 mM Tris-Base, pH 7.4 containing sodium chloride (500 mM) and magnesium chloride (2 mM)) were performed at 4° C. to remove unbound radioactivity. […] The plates were sealed (TopSeal A) and filter-bound radioactivity was measured with a scintillation counter (TopCount, Packard BioScience) using a 1 minute counting protocol.
Specific binding was determined from values of the control wells minus the values for the NSB wells for each assay plate. […] Data were presented as mean pKi values (calculated by applying a Cheng-Prussof correction to pIC50 values) from a minimum of 2 separate experiments.

SMILES: Cc1c(CN2CCC(NC(=O)COc3nc(N)c(C(=O)O)cc3F)CC2)ccc(Cl)c1Cl [Example 4, 2-Amino-6-{[1-(3,4-dichloro-2-methyl-benzyl)-piperidin-4-ylcarbamoyl]-methoxy}-5-fluoro-nicotinic acid]
- CLint scaled at 1 µM [1]: < 3 mL/min/kg
- Ki [2]: 3.16 nM
